IC50 data for one molecule are collected here from patent publication US20110150833A1, “BENZOPYRANS AND ANALOGS AS RHO KINASE INHIBITORS” (The Scripps Research Institute, priority 2007, published 2011).

This test relates to N2a cells. Description: In vitro cell-based neurite length (N2a) assay. As to conditions: Mus musculus, neurite retraction induced by 5 uM LPA. As to the method:
In Vitro Cell-Based Neurite Length (N2a) Assay
N2a cells are maintained in DMEM/FBS at 37 C and 5% CO2. For the experiment the cells were plated on a poly-D-lysine coated 96-well tissue culture plate. After attachment, cell differentiation was induced for 2 days by addition of 10 uM retinoic acid. Cells were treated for 1 h with a dilution of compounds in 0.3% DMSO final concentration before neurite retraction was induced by 5 uM LPA. Cells were stained for tubulin and nuclei and images were acquired on an INCell 1000 workstation. Images were analyzed using the developer toolbox and neurite length was quantitated.

By IC50 is commonly meant the midpoint of a concentration-inhibition curve. Higher therefore signals weaker potency. Molecule `COc1ccc2c(c1)CC(C(=O)Nc1ccc(-c3cn[nH]c3)cc1)CO2` (stereo not shown) [Example 92, 6-methoxy-chroman-3-carboxylic acid [4-(1H-pyrazol-4-yl)-phenyl]-amide] yielded a 50% inhibitory concentration (IC50) of 27 nM.
